From patent US10556854B2, “Bacterial efflux pump inhibitors” (RUTGERS, THE STATE UNIVERSITY OF NEW JERSEY, priority 2016, dated 2020)
Counter-ions that a name gives are not always drawn.

Experiments:
E. coli = experiment: MIC-based assay for potentiation of antibiotics that are known efflux pump substrates (Test A), E. coli; format: cell-based; conditions: fold lowering of MIC of antibiotic (e.g., clarithromycin and levofloxacin) with EPI compound at 1.6 to 12.5 μg/mL; Escherichia coli ATCC 25922
From the text: (§1) The ability of a compound disclosed herein to inhibit a bacterial efflux pump can be determined using a method like Test A or Test B as described in Example 13 and as shown in Table 1.
(§2) Test A. Minimum Inhibitory Concentration (MIC)-Based Assay for Potentiation of Antibiotics that are Known Efflux Pump Substrates:
(§3) MIC-based assays were used to evaluate the impact of potential efflux pump inhibiting (EPI) compounds on the MICs of antibiotics (e.g., clarithromycin and levofloxacin) known to be substrates for Gram-negative bacterial efflux pumps. The assays were conducted in accordance with Clinical and Laboratory Standards Institute (CLSI) guidelines for broth microdilution, with the modification that assays were conducted in the presence and absence of the test EPI compounds. When present, the EPI compounds were added to cation-adjusted Mueller-Hinton (CAMH) broth (Becton, Dickinson and Co., Franklin Lakes, N.J.) at a final concentration in the range of 1.6 to 12.5 μg/mL.
(§4) Log-phase Gram-negative bacteria were added to 96-well microtiter plates (at 5×10^5 colony forming units (CFU) per mL) containing two-fold serial dilutions of antibiotic in CAMH broth either in the absence or presence of the test EPI compounds. In all assays, each serial dilution of antibiotic was present in duplicate. The final volume in each well was 0.1 mL, and the microtiter plates were incubated aerobically for 24 hours at 37° C. Bacterial growth was then monitored by measuring the optical density (OD) at 600 nm using a VersaMax® plate reader (Molecular Devices, Inc., Sunnyvale, Calif.), with the MIC being defined as the lowest compound concentration at which growth was ≥90% inhibited compared to antibiotic-free control. The following Gram-negative bacterial strains were included in these assays: • Escherichia coli ATCC 25922 • Klebsiella pneumoniae ATCC 13883 and ATCC 10031 • Pseudomonas aeruginosa ATCC 27853. Test B. Fluorescence-Based Cellular Assay for Efflux Inhibition: […]

P. aeruginosa = experiment: MIC-based assay for potentiation of antibiotics that are known efflux pump substrates (Test A), P. aeruginosa; format: cell-based; conditions: fold lowering of MIC of antibiotic (e.g., clarithromycin and levofloxacin) with EPI compound at 1.6 to 12.5 μg/mL; Pseudomonas aeruginosa ATCC 27853
From the text: as §1, §2, §3, §4

SMILES	Active in E. coli (E. coli) [x]	Active in P. aeruginosa (P. aeruginosa) [x]
NCCC[C@H](N)CNC(CCc1ccccc1)CCc1ccccc1 [Example 1, (S)—N^1-(1,5-Diphenylpentan-3-yl)pentane-1,2,5-triamine 3 TFA]	≥8	<2
NC[C@@H](N)CCCNC(CCc1ccccc1)CCc1ccccc1 [Example 2, (S)—N^5-(1,5-diphenylpentan-3-yl)pentane-1,2,5-triamine 3 TFA]	≥16	≥4
NCC[C@H](N)CNC(CCc1ccccc1)CCc1ccccc1 [Example 3, (S)—N^1-(1,5-diphenylpentan-3-yl)butane-1,2,4-triamine 3TFA]	≥4	≥2
NC[C@@H](N)CCNC(CCc1ccccc1)CCc1ccccc1 [Example 4, (S)—N^4-(1,5-diphenylpentan-3-yl)butane-1,2,4-triamine 3 TFA]	≥2	≥2
NCC[C@H](N)CCNC(CCc1ccccc1)CCc1ccccc1 [Example 5, (S)—N^1-(1,5-Diphenylpentan-3-yl)pentane-1,3,5-triamine 3 TFA]	≥32	≥16
NCCC[C@H](N)CNCC(CCc1ccccc1)CCc1ccccc1 [Example 7, (S)—N^1-(2-phenethyl-4-phenylbutyl)pentane-1,2,5-triamine 3TFA]	≥32	≥32
NC[C@@H](N)CCCNCC(CCc1ccccc1)CCc1ccccc1 [Example 8, (S)—N^5-(2-phenethyl-4-phenylbutyl)pentane-1,2,5-triaminium 2,2,2-trifluoroacetate]	≥32	≥32
CC(C)C(N)CC[C@H](N)CNCC(CCc1ccccc1)CCc1ccccc1 (stereo partly shown) [Example 9]	≥128	<2
CC(C)C(N)CC[C@H](N)CNC(CCc1ccccc1)CCc1ccccc1.Cl.Cl.Cl (stereo partly drawn) [Example 10, (2S)—N^1-(1,5-diphenylpentan-3-yl)-6-methylheptane-1,2,5-triaminium chloride]	≥256	<2
NCC(N)COC(CCc1ccccc1)CCc1ccccc1 (stereo not shown) [Example 11, 3-((1,5-diphenylpentan-3-yl)oxy)propane-1,2-diamine]	<2	<2
NCC(N)COCC(CCc1ccccc1)CCc1ccccc1 (stereo not shown) [Example 12, 3-(2-phenethyl-4-phenylbutoxy)propane-1,2-diamine]	8	<2
